In the CheMixHub viscosity set:

Assay: xn = mol fraction of the nth substance listed

CN1CCCC1=O + O
Conditions | viscosity [mPa·s]
293.15 K, 101 kPa, x1 = 0.6997 | 2.865
298.15 K, 101 kPa, x1 = 0.02 | 1.2
298.15 K, 101 kPa, x1 = 0.0505 | 1.809
298.15 K, 101 kPa, x1 = 0.0985 | 2.79
298.15 K, 101 kPa, x1 = 0.0997 | 2.778
298.15 K, 101 kPa, x1 = 0.1202 | 3.198
298.15 K, 101 kPa, x1 = 0.1503 | 3.914
298.15 K, 101 kPa, x1 = 0.1702 | 4.125
298.15 K, 101 kPa, x1 = 0.1881 | 4.44
298.15 K, 101 kPa, x1 = 0.1999 | 4.578
298.15 K, 101 kPa, x1 = 0.2205 | 4.804
298.15 K, 101 kPa, x1 = 0.2496 | 5.035
298.15 K, 101 kPa, x1 = 0.2697 | 5.12
298.15 K, 101 kPa, x1 = 0.2937 | 5.154
298.15 K, 101 kPa, x1 = 0.3053 | 5.1
298.15 K, 101 kPa, x1 = 0.3496 | 5.006
298.15 K, 101 kPa, x1 = 0.3959 | 4.59
298.15 K, 101 kPa, x1 = 0.3999 | 4.679
298.15 K, 101 kPa, x1 = 0.45 | 4.31
298.15 K, 101 kPa, x1 = 0.4954 | 3.77
298.15 K, 101 kPa, x1 = 0.4999 | 3.909
298.15 K, 101 kPa, x1 = 0.5941 | 3.07
298.15 K, 101 kPa, x1 = 0.6002 | 3.214
298.15 K, 101 kPa, x1 = 0.6917 | 2.55
298.15 K, 101 kPa, x1 = 0.7 | 2.676
298.15 K, 101 kPa, x1 = 0.786 | 2.18
298.15 K, 101 kPa, x1 = 0.7997 | 2.299
298.15 K, 101 kPa, x1 = 0.8859 | 1.9
298.15 K, 101 kPa, x1 = 0.8962 | 2.023
298.15 K, 101 kPa, x1 = 0.9498 | 1.908
298.15 K, 101.15 kPa, x1 = 0.0501 | 1.74
298.15 K, 101.15 kPa, x1 = 0.0701 | 2.137
298.15 K, 101.15 kPa, x1 = 0.1001 | 2.762
298.15 K, 101.15 kPa, x1 = 0.2004 | 4.555
298.15 K, 101.15 kPa, x1 = 0.3004 | 5.062
298.15 K, 101.15 kPa, x1 = 0.4012 | 4.505
298.15 K, 101.15 kPa, x1 = 0.503 | 3.729
298.15 K, 101.15 kPa, x1 = 0.5937 | 3.075
298.15 K, 101.15 kPa, x1 = 0.7023 | 2.503
298.15 K, 101.15 kPa, x1 = 0.9006 | 1.836
298.16 K, 101 kPa, x2 = 0.0836 | 1.84
298.16 K, 101 kPa, x2 = 0.1794 | 2.14
298.16 K, 101 kPa, x2 = 0.3006 | 2.72
298.16 K, 101 kPa, x2 = 0.4221 | 3.52
298.16 K, 101 kPa, x2 = 0.5466 | 4.45
298.16 K, 101 kPa, x2 = 0.6595 | 5.05
298.16 K, 101 kPa, x2 = 0.6861 | 5.04
298.16 K, 101 kPa, x2 = 0.7608 | 4.66
298.16 K, 101 kPa, x2 = 0.7976 | 4.23
298.16 K, 101 kPa, x2 = 0.8599 | 3.2
303.15 K, 101 kPa, x1 = 0.3001 | 4.365
303.15 K, 101 kPa, x1 = 0.899 | 1.705
308.15 K, 101 kPa, x1 = 0.02 | 0.9403
308.15 K, 101 kPa, x1 = 0.0505 | 1.375
308.15 K, 101 kPa, x1 = 0.1202 | 2.303
308.15 K, 101 kPa, x1 = 0.1702 | 2.895
308.15 K, 101 kPa, x1 = 0.1999 | 3.179
308.15 K, 101 kPa, x1 = 0.2205 | 3.323
308.15 K, 101 kPa, x1 = 0.2496 | 3.478
308.15 K, 101 kPa, x1 = 0.2697 | 3.539
308.15 K, 101 kPa, x1 = 0.2937 | 3.574
308.15 K, 101 kPa, x1 = 0.3202 | 3.591
308.15 K, 101 kPa, x1 = 0.3496 | 3.518
308.15 K, 101 kPa, x1 = 0.3999 | 3.351
308.15 K, 101 kPa, x1 = 0.45 | 3.147
308.15 K, 101 kPa, x1 = 0.4999 | 2.912
308.15 K, 101 kPa, x1 = 0.6002 | 2.487
308.15 K, 101 kPa, x1 = 0.7 | 2.138
308.15 K, 101 kPa, x1 = 0.7997 | 1.883
308.15 K, 101 kPa, x1 = 0.8962 | 1.691
313.15 K, 101.15 kPa, x1 = 0.0501 | 1.178
313.15 K, 101.15 kPa, x1 = 0.0701 | 1.402
313.15 K, 101.15 kPa, x1 = 0.1001 | 1.744
313.15 K, 101.15 kPa, x1 = 0.2004 | 2.684
313.15 K, 101.15 kPa, x1 = 0.3004 | 2.975
313.15 K, 101.15 kPa, x1 = 0.4012 | 2.777
313.15 K, 101.15 kPa, x1 = 0.503 | 2.44
313.15 K, 101.15 kPa, x1 = 0.5937 | 2.125
313.15 K, 101.15 kPa, x1 = 0.7023 | 1.818
313.15 K, 101.15 kPa, x1 = 0.8066 | 1.585
313.15 K, 101.15 kPa, x1 = 0.9006 | 1.43
318.15 K, 101 kPa, x1 = 0.0997 | 1.548
318.15 K, 101 kPa, x1 = 0.1202 | 1.73
318.15 K, 101 kPa, x1 = 0.1503 | 2.039
318.15 K, 101 kPa, x1 = 0.1702 | 2.13
318.15 K, 101 kPa, x1 = 0.1999 | 2.32
318.15 K, 101 kPa, x1 = 0.2205 | 2.417
318.15 K, 101 kPa, x1 = 0.2496 | 2.527
318.15 K, 101 kPa, x1 = 0.2697 | 2.572
318.15 K, 101 kPa, x1 = 0.2937 | 2.603
318.15 K, 101 kPa, x1 = 0.3202 | 2.623
318.15 K, 101 kPa, x1 = 0.3496 | 2.589
318.15 K, 101 kPa, x1 = 0.3999 | 2.503
318.15 K, 101 kPa, x1 = 0.45 | 2.387
318.15 K, 101 kPa, x1 = 0.4999 | 2.245
318.15 K, 101 kPa, x1 = 0.6002 | 1.977
318.15 K, 101 kPa, x1 = 0.7997 | 1.571
318.15 K, 101 kPa, x1 = 0.9498 | 1.375
323.15 K, 101 kPa, x1 = 0.6997 | 1.485
323.15 K, 101.15 kPa, x1 = 0.0501 | 0.942
323.15 K, 101.15 kPa, x1 = 0.0701 | 1.106
323.15 K, 101.15 kPa, x1 = 0.2004 | 1.995
323.15 K, 101.15 kPa, x1 = 0.4012 | 2.116
323.15 K, 101.15 kPa, x1 = 0.503 | 1.935
323.15 K, 101.15 kPa, x1 = 0.7023 | 1.509
323.15 K, 101.15 kPa, x1 = 0.8066 | 1.343
